Measurements published in US20230181614A1, “ADMINISTRATION OF CITICOLINE TO IMPROVE COGNITIVE PERFORMANCE, ATTENTIONAL PERFORMANCE, AND MOTOR FUNCTION” (KYOWA HAKKO BIO CO., LTD., priority 2014, published 2023).
“And” between values parts separate entries of the source, which are not always exact repeats. Equal entries are not always repeated.

What was measured:
Format in all cases: in vivo, human
[1] = test system: Healthy subjects, ages 13-18; test: Conner-Wells Self-Report Scale (L) (Conners); conditions: for Conners Score, Mean: V3-V1
Source text: Study participants were screened by telephone prior to study enrollment. Healthy subjects, ages 13-18, with no significant medical conditions and no history of co-morbid psychiatric disorder, current Axis I or II diagnosis, or previous participation in a pharmacotherapeutic trial, were selected. Use of any psychotropic medication or any previous head injury resulting in loss of consciousness for 5 or more minutes were used as exclusion criteria. While no participant met criteria for a neuropsychiatric disorder at enrollment, clinical assessments were still completed throughout the study to evaluate changes in mood state. In addition, self-reports of sleep habits, lifestyle, and exercise routines were also administered at baseline as well as at each study visit to assess changes in health habits during study participation. Following the completion of Visit 1 assessment, participants were given their 28-day supply of citicoline (250 mg or 500 mg) or placebo, which was randomly assigned. They were instructed to take one capsule a day every day for the next 28 days. Visit 2 occurred fourteen days after Visit 1. At Visit 2, the remaining study pills were counted and participant dosage calendars were checked to ensure compliance with the protocol. Additional neuropsychological measures and clinical assessments were administered during this visit. Participants returned for Visit 3 fourteen days later, on the 28th day of their study participation. The pill bottle and the dosage calendar were collected from each participant. Urine and blood were again obtained. Participants also participated in similar clinical and neuropsychological testing and clinical measures that were given during visit 1. The Conners is a self-report questionnaire assessing a range or problem behaviors in children, including family problems, emotional problems, conduct problems, cognitive problems/inattention, anger control problems, hyperactivity, ADHD Index, and DSM-IV symptom subscales. The scale was administered at the first and third visits to assess presence or absence of a range of problem behaviors.

[2] = test system: Healthy subjects, ages 13-18; test: Finger Tap Test (motor speed and control); conditions: for V3-V1 Finger Tap Test Mean Dominant Hand, Mean / V3-V1 Finger Tap Test Mean Non-Dominant Hand, Mean: Visit difference score; for Finger Tap Test Mean Dominant Hand V3, Mean / Finger Tap Test Mean Non-Dominant Hand V3, Mean: Visit 3; for Finger Tap Test Mean Dominant Hand, Mean / Finger Tap Test Mean Non-Dominant Hand, Mean: 250 mg/day
Procedure: The citicoline-treated group (N=51) were administered 250 mg/day (N=24) or 500 mg/day (N=27). Three finger tap tests were administered over a period of 28 days to measure motor speed and control. Results are expressed as mean ± SD. Statistical analysis was performed using Student’s t test. The p<0.05 was considered statistically significant. Study participants were screened by telephone prior to study enrollment. Healthy subjects, ages 13-18, with no significant medical conditions and no history of co-morbid psychiatric disorder, current Axis I or II diagnosis, or previous participation in a pharmacotherapeutic trial, were selected. Use of any psychotropic medication or any previous head injury resulting in loss of consciousness for 5 or more minutes were used as exclusion criteria. While no participant met criteria for a neuropsychiatric disorder at enrollment, clinical assessments were still completed throughout the study to evaluate changes in mood state. In addition, self-reports of sleep habits, lifestyle, and exercise routines were also administered at baseline as well as at each study visit to assess changes in health habits during study participation. Following the completion of Visit 1 assessment, participants were given their 28-day supply of citicoline (250 mg or 500 mg) or placebo, which was randomly assigned. They were instructed to take one capsule a day every day for the next 28 days. Visit 2 occurred fourteen days after Visit 1. At Visit 2, the remaining study pills were counted and participant dosage calendars were checked to ensure compliance with the protocol. Additional neuropsychological measures and clinical assessments were administered during this visit. Participants returned for Visit 3 fourteen days later, on the 28th day of their study participation. The pill bottle and the dosage calendar were collected from each participant. Urine and blood were again obtained. Participants also participated in similar clinical and neuropsychological testing and clinical measures that were given during visit 1. The finger tap test is used to measure motor speed and control. It is a common assessment measure administered by neuropsychologists to detect cognitive impairment. During the finger tap test, the participant is instructed to use his/her index finger to press a lever attached to a mechanical counter as many times as s/he can within the designated time period. The participant is instructed to move only their index finger, not the entire hand. The same process is completed using the index finger of the dominant and non-dominant hand. The finger tap test was administered at each of the three visits.

[3] = test system: Healthy subjects, ages 13-18; test: Children's Depression Rating Scale (CDRS); conditions: for CDRS Score, Mean: V3-V1
Source text: Study participants were screened by telephone prior to study enrollment. Healthy subjects, ages 13-18, with no significant medical conditions and no history of co-morbid psychiatric disorder, current Axis I or II diagnosis, or previous participation in a pharmacotherapeutic trial, were selected. Use of any psychotropic medication or any previous head injury resulting in loss of consciousness for 5 or more minutes were used as exclusion criteria. While no participant met criteria for a neuropsychiatric disorder at enrollment, clinical assessments were still completed throughout the study to evaluate changes in mood state. In addition, self-reports of sleep habits, lifestyle, and exercise routines were also administered at baseline as well as at each study visit to assess changes in health habits during study participation. Following the completion of Visit 1 assessment, participants were given their 28-day supply of citicoline (250 mg or 500 mg) or placebo, which was randomly assigned. They were instructed to take one capsule a day every day for the next 28 days. Visit 2 occurred fourteen days after Visit 1. At Visit 2, the remaining study pills were counted and participant dosage calendars were checked to ensure compliance with the protocol. Additional neuropsychological measures and clinical assessments were administered during this visit. Participants returned for Visit 3 fourteen days later, on the 28th day of their study participation. The pill bottle and the dosage calendar were collected from each participant. Urine and blood were again obtained. Participants also participated in similar clinical and neuropsychological testing and clinical measures that were given during visit 1. The CDRS is an investigator-administered scale that are widely used as observational measures of depressive symptoms in children. The scale was administered at each of the three visits to assess presence or absence of depressive symptoms.

`C[N+](C)(C)CCOP(=O)(O)OP(=O)([O-])OC[C@H]1O[C@@H](n2ccc(N)nc2=O)[C@H](O)[C@@H]1O` [citicoline, Cytidine 5′-diphosphocholine] was tested, and the “Conners, Mean” value ([1]; 250 mg/day, V1 (baseline)) was 49.26, the “Conners, Mean” value ([1]; 250 mg/day, V3 (day 28)) was 49.52 and 46.52 and the “Conners Score, Mean” value ([1]; 250 mg/day) was -2.74. For the same molecule, the “Conners, Mean” value ([1]; 500 mg/day, V1 (baseline)) was 43.83, the “Conners, Mean” value ([1]; 500 mg/day, V3 (day 28)) was 39.54 and the “Conners Score, Mean” value ([1]; 500 mg/day) was -4.29. The “V3-V1 Finger Tap Test Mean Dominant Hand, Mean” value ([2]; 250 mg/day group) was 4.87, the “V3-V1 Finger Tap Test Mean Non-Dominant Hand, Mean” value ([2]; 250 mg/day group) was 2.49 and the “Finger Tap Test Mean Dominant Hand V3, Mean” value ([2]; 250 mg/day group) was 51.59. For the same molecule, the “Finger Tap Test Mean Non-Dominant Hand V3, Mean” value ([2]; 250 mg/day group) was 47.01, the “Finger Tap Test Mean Dominant Hand, Mean” value ([2]; V1 (baseline)) was 46.72 and the “Finger Tap Test Mean Non-Dominant Hand, Mean” value ([2]; V1 (baseline)) was 44.52. The “Finger Tap Test Mean Dominant Hand, Mean” value ([2]; V3 (day 28)) was 51.59, the “Finger Tap Test Mean Non-Dominant Hand, Mean” value ([2]; V3 (day 28)) was 47.01 and the “Finger Tap Test Mean Dominant Hand V1, Mean” value ([2]; 500 mg/day group, Visit 1) was 49.44. The “Finger Tap Test Mean Non-Dominant Hand V1, Mean” value ([2]; 500 mg/day group, Visit 1) was 44.89, the “V3-V1 Finger Tap Test Mean Dominant Hand, Mean” value ([2]; 500 mg/day group) was 2.61 and the “V3-V1 Finger Tap Test Mean Non-Dominant Hand, Mean” value ([2]; 500 mg/day group) was 2.21. The “Finger Tap Test Mean Dominant Hand V3, Mean” value ([2]; 500 mg/day group) was 52.05, the “Finger Tap Test Mean Non-Dominant Hand V3, Mean” value ([2]; 500 mg/day group) was 47.10 and the “CDRS, Mean” value ([3]; 250 mg/day, V1 (baseline)) was 16.89. For the same molecule, the “CDRS, Mean” value ([3]; 250 mg/day, V3 (day 28)) was 16.22, the “CDRS Score, Mean” value ([3]; 250 mg/day) was -0.67 and the “CDRS, Mean” value ([3]; 500 mg/day, V1 (baseline)) was 16.33. For the same molecule, the “CDRS, Mean” value ([3]; 500 mg/day, V3 (day 28)) was 16.08 and the “CDRS Score, Mean” value ([3]; 500 mg/day) was -0.25.
